Measurements as given in patent US12478689B2, “Anti-CD19 antibody drug conjugates” (AbbVie Biotherapeutics Inc., priority 2022, dated 2025).
pEC50: −log10 of the molar value.

How the values were obtained:
[1] = test system: Farage, SU-DHL-6, OCI-LY19 cells; conditions: GRM 100 nM, ADC-1 1 μM; all 3 cell lines
[2] = test system: RS4;11 (ALL); conditions: read-out: EC50 in vitro cytotoxicity (% cell viability), 5-day compound treatment, FIG. 1
[3] = test system: RS4;11 tumors; assay: ALL subcutaneous xenograft in CB17/SCID mice; type: in vivo; conditions: FIG. 11; fucosylated mAb and ADC-1 used; prednisolone [QD×5]×3; ADC-1 single low dose
From the text: Food and water were available ad libitum.
Intraperitoneal route of administration was used.
Tumor volume was estimated one to two times weekly.

With `C[C@]12C=CC(=O)C=C1[C@@H](F)C[C@H]1[C@@H]3C[C@H]4O[C@@H](c5ccc(Cc6cccc(N)c6)cc5)O[C@@]4(C(=O)CO)[C@@]3(C)C[C@H](O)[C@@]12F` [Compound of Formula IV, (2S,6aS,6bR,7S,8aS,8bS,10R,11aR,12aS,12bS)-10-(4-(3-Aminobenzyl)phenyl)-2,6b-difluoro-7-hydroxy-8b-(2-hydroxyacetyl)-6a,8a-dimethyl-1,2,6a,6b,7,8,8a,8b,11a,12,12a,12b-dodecahydro-4H-naphtho[2′,1′:4,5]indeno[1,2-d][1,3]dioxol-4-one] the “Apoptosis (BIM, cleaved caspase-3, cleaved PARP)” value [1] was “induced apoptosis”.
`C[C@@H]1C[C@H]2[C@@H]3CCC4=CC(=O)C=C[C@]4(C)[C@@]3(F)[C@@H](O)C[C@]2(C)[C@@]1(O)C(=O)CO` [dexamethasone] was tested, and the pEC50 [2] was 8.48.
With `C[C@]12C=CC(=O)C=C1CC[C@@H]1[C@@H]2[C@@H](O)C[C@@]2(C)[C@H]1CC[C@]2(O)C(=O)CO` [prednisolone, reference compound] the Anti-tumor activity [3] was “modest anti-tumor activity” and the pEC50 [2] was 7.08.
